From patent US6737383B1, “Herbicidal oxadiazolidines” (priority 1999, dated 2004)

Legend:
[1] = tested on: morningglory; experiment: Test A morningglory; assay type: in vivo, Ipomoea spp.; settings: 0 to 10 scale where 0 is no effect and 10 is complete control
Method in brief: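 Ratings came from visual comparison with untreated plants about eleven days after treatment, scored 0 for no effect through 10 for complete control. Both soil-drench preemergence and runoff-spray postemergence applications were made at the same time.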

[2] = tested on: bermuda-grass; experiment: Test D bermudagrass; assay type: in vivo, Cynodon dactylon; settings: Rate 64 g/ha, Postemergence; 0 to 100 scale, 0 no injury, 100 complete control
[3] = tested on: common ragweed; experiment: Test D common ragweed; assay type: in vivo, Ambrosia elatior; settings: Rate 64 g/ha, Postemergence; 0 to 100 scale, 0 no injury, 100 complete control
[4] = tested on: common groundsel; experiment: Test D common groundsel; assay type: in vivo, Senecio vulgaris; settings: Rate 64 g/ha, Postemergence; 0 to 100 scale, 0 no injury, 100 complete control
[5] = tested on: goosegrass; experiment: Test D goosegrass; assay type: in vivo, Eleusine indica; settings: Rate 64 g/ha, Postemergence; 0 to 100 scale, 0 no injury, 100 complete control
[6] = tested on: itchgrass; experiment: Test D itchgrass; assay type: in vivo, Rottboellia exaltata; settings: Rate 64 g/ha, Postemergence; 0 to 100 scale, 0 no injury, 100 complete control
[7] = tested on: large crabgrass; experiment: Test D large crabgrass; assay type: in vivo, Digitaria sanguinalis; settings: Rate 64 g/ha, Postemergence; 0 to 100 scale, 0 no injury, 100 complete control
[8] = tested on: purple nutsedge; experiment: Test D purple nutsedge; assay type: in vivo, Cyperus rotundus; settings: Rate 64 g/ha, Postemergence; 0 to 100 scale, 0 no injury, 100 complete control
[9] = tested on: sandbur; experiment: Test D sandbur; assay type: in vivo, Cenchrus echinatus; settings: Rate 64 g/ha, Postemergence; 0 to 100 scale, 0 no injury, 100 complete control
[10] = tested on: Green foxtail; experiment: Test D green foxtail; assay type: in vivo; settings: Rate 64 g/ha, Postemergence; 0 to 100 scale, 0 no injury, 100 complete control

CC(C)N(C(=O)n1oc(=O)n(C2CCCCC2C(F)(F)F)c1=O)c1ccc(F)cc1 (stereo not drawn) [Compound 99]
Plant response rating, Morningglory ([1]; Postemergence, Rate 1000 g/ha): 2 | Plant response rating, Morningglory ([1]; Pre-emergence, Rate 2000 g/ha): 2

CCN(CC)C(=O)n1oc(=O)n(-c2ccc(OC)cc2)c1=O [Compound 1]
Plant response rating, Morningglory ([1]; Postemergence, Rate 1000 g/ha): 0 | Plant response rating, Morningglory ([1]; Pre-emergence, Rate 2000 g/ha): 0

CC(C)Oc1cc(-n2c(=O)on(C(=O)N(c3ccc(F)cc3)C(C)C)c2=O)c(Cl)cc1Cl [Compound 43]
Plant response rating, Morningglory ([1]; Postemergence, Rate 1000 g/ha): 0 | Plant response rating, Morningglory ([1]; Pre-emergence, Rate 2000 g/ha): 0

CC(C)Cn1c(=O)on(C(=O)N(c2ccc(F)cc2)C(C)C)c1=O [Compound 169]
Plant response rating, Bermudagrass [2]: 100 | Plant response rating, C. ragweed [3]: 0 | Plant response rating, Com. groundsel [4]: 65 | Plant response rating, Goosegrass [5]: 100 | Plant response rating, Itchgrass [6]: 0 | Plant response rating, Large crabgrass [7]: 100 | Purple nutsedge plant response rating [8]: 0 | Sandbur plant response rating [9]: 40 | Plant response rating, Green foxtail [10]: 100
